Test results as given in ChEMBL document CHEMBL1201862, “PubChem BioAssay data set” (2004).
Activity calls are given as the source filed them.

Columns and labels:
[1] = target: Induced myeloid leukemia cell differentiation protein Mcl-1 (Homo sapiens, UniProt Q07820); assay type: functional
[2] = target: T1, Rac GTPase-activating protein 1 (Homo sapiens, UniProt Q9H0H5); test: blockers of MgcRacGAP-driven Rac1 GTP hydrolysis – biochemical, ADP Hunter fluorescence, primary and confirmatory, confirmation (AID 624330); assay type: functional
T1 sequence (Q9H0H5 whole entry): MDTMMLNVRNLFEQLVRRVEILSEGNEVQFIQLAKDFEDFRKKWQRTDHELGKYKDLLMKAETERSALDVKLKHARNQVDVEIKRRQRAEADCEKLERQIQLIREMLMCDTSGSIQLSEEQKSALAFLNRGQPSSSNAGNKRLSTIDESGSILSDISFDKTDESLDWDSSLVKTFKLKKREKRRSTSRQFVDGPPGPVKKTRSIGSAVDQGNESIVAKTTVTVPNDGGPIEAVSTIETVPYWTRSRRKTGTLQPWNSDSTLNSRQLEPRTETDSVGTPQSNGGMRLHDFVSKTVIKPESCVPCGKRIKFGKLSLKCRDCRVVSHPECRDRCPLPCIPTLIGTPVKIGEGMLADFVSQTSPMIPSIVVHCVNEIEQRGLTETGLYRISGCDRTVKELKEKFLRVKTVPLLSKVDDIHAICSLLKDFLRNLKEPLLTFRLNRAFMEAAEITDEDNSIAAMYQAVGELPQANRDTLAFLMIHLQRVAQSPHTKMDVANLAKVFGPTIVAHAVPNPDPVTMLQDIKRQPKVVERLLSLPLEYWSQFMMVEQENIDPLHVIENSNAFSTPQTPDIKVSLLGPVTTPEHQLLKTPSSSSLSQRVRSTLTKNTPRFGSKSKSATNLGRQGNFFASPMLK

Streptococcus = test: GAS UMAA2166 growth inhibition – luminescence, BacTiterGlo, counter-screen for streptokinase expression inhibitor project, dose response (AID 1915); assay type: functional, organism-based;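 note: potency for reduction of bacterial viability or growth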
Nonstructural protein 1 = Nonstructural protein 1 (Influenza A virus, UniProt Q194T2); assay type: functional, Influenza A virus (A/California/07/2009(H1N1))
Chain of Nonstructural protein 1 (Q194T2 whole entry): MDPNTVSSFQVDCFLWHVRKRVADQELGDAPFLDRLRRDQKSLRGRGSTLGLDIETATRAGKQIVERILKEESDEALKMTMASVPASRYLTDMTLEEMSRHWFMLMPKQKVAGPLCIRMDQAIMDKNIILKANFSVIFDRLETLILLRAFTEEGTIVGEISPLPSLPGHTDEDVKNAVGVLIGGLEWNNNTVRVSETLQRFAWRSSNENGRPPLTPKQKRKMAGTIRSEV

[3] = test system: Streptococcus sp. 'group A'; test: Streptococcus pyogenes SK(-)GAS viability under kanamycin – luminescence, BacTiterGlo, confirmation, counter-screen for streptokinase expression inhibitor project, dose response (AID 1900); assay type: functional, organism-based
Streptokinase A = target: T2, Streptokinase A (Streptococcus pyogenes serotype M1, UniProt P10520); test: viability-normalized secreted streptokinase activity reduction – plasminogen activation absorbance, OD405, dose response (AID 1914); assay type: functional, Streptococcus pyogenes M1 GAS;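 note: secreted streptokinase activity via plasminogen activation per viability signal from cell pellet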
T2 sequence (P10520 whole entry): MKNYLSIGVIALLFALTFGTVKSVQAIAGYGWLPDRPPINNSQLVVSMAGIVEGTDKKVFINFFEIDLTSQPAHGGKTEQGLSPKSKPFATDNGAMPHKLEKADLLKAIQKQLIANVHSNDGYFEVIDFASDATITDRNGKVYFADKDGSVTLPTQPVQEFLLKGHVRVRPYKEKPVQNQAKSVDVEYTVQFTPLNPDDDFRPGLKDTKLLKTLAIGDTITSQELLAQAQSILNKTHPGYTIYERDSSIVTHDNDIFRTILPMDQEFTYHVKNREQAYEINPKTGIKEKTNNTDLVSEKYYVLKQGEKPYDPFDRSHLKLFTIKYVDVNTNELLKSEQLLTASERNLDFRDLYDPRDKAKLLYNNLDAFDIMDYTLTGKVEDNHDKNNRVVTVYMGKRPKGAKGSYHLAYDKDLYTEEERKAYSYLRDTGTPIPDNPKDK

cells = assay type: functional
[4] = THP-1 cell cytotoxicity, dose response, cytotoxicity control for non-replicating M. tuberculosis project (AID 489025); assay type: functional
[5] = target: T3, Alkaline phosphatase, tissue-nonspecific isozyme (Homo sapiens, UniProt P05186); test: potency against alkaline phosphatase TNAP – biochemical, luminescent, dose response, SAR follow-up (AID 1056)
T3 sequence (P05186 whole entry): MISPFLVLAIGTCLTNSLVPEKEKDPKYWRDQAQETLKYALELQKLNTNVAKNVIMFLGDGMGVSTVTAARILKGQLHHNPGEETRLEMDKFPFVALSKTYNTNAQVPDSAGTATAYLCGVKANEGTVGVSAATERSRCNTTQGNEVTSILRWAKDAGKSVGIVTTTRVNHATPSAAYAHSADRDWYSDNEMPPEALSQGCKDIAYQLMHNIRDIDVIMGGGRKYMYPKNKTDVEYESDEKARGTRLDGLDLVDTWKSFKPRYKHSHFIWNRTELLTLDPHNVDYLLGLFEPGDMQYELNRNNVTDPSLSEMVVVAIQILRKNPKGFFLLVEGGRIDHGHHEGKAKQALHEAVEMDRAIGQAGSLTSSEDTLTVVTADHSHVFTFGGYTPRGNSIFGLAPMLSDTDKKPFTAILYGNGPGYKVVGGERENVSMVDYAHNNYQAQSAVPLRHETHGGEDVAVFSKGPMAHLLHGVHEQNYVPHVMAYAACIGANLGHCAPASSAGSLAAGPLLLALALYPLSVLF

[6] = target: Glyceraldehyde-3-phosphate dehydrogenase (Homo sapiens, UniProt P04406)
Chain of Glyceraldehyde-3-phosphate dehydrogenase (P04406 whole entry): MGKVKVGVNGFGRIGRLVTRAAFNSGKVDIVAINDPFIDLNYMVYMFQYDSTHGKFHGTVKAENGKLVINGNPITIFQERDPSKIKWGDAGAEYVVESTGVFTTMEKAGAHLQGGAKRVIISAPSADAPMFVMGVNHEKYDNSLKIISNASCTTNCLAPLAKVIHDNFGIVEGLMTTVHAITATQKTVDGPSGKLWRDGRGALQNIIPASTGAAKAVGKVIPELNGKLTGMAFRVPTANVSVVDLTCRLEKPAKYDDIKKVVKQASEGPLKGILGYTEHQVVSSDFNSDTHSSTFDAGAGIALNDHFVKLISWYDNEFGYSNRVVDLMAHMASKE

[7] = target: T4, Calpain-2 catalytic subunit (Sus scrofa, UniProt P43367); test: m-calpain protease blockers, concentration series – biochemical, fluorogenic peptide substrate, dose response (AID 1420); assay type: functional
T4 sequence (P43367 whole entry): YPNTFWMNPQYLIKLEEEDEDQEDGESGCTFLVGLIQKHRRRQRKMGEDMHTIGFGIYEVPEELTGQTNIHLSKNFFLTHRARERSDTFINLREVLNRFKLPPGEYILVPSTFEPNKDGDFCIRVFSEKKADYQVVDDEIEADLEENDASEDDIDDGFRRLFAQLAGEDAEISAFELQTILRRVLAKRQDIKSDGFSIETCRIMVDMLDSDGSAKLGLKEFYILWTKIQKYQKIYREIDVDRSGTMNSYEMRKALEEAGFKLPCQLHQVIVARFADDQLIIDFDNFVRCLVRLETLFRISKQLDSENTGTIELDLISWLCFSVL

HEK293 [8] = test: cells; assay type: functional, cell-based; settings: Homo sapiens
HEK293 [9] = test: NOD2 signaling inhibitors in MDP-stimulated cells, cell-based, uHTS, luminescence (AID 2001); assay type: functional; settings: Homo sapiens
HEK293 [10] = test: cells; assay type: functional, cell-based; settings: Homo sapiens; remark: listed apart in the source
HEK293 [11] = test: cells; assay type: functional, cell-based; settings: Homo sapiens; remark: listed apart in the source
[12] = target: Nucleotide-binding oligomerization domain-containing protein 2 (Homo sapiens, UniProt Q9HC29); test: inhibition of NOD2-driven NF-kB reporter – cell-based, luminescence, uHTS, HEK293 (AID 1566); assay type: functional
Chain of Nucleotide-binding oligomerization domain-containing protein 2 (Q9HC29 whole entry, the tested form may be a part): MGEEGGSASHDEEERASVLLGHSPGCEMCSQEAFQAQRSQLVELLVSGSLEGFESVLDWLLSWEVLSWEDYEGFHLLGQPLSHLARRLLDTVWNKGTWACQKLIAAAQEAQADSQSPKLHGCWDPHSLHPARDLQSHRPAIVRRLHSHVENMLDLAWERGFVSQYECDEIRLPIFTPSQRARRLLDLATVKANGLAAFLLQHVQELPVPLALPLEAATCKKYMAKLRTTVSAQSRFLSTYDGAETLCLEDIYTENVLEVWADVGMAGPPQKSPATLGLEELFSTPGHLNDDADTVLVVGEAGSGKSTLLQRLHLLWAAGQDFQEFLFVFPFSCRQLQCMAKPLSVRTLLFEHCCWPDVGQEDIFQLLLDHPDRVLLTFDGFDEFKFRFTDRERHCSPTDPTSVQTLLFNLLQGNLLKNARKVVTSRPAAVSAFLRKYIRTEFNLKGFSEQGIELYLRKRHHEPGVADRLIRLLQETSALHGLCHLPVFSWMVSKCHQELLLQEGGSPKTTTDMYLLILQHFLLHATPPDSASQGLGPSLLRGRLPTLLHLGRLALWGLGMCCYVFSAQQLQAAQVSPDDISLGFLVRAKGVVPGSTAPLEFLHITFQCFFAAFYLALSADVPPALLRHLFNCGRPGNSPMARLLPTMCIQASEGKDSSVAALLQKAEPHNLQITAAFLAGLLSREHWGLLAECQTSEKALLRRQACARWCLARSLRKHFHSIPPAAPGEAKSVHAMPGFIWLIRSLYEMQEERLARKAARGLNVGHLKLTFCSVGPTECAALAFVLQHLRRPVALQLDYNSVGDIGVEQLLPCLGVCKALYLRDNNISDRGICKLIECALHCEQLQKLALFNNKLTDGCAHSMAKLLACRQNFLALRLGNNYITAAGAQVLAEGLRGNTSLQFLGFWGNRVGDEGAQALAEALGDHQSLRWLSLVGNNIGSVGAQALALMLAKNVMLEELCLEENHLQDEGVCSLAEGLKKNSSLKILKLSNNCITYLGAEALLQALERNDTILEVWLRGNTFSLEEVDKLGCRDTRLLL

HEK293 [13] = test: inhibition of NOD1-driven NF-kB reporter – cell-based, luminescence, uHTS, primary screen (AID 1578); assay type: functional; settings: Homo sapiens
[14] = target: T5, Microphthalmia-associated transcription factor (Homo sapiens, UniProt O75030); test: reducers of TRPM1 reporter luminescence, concentration series – cell-based, SK-MEL-5, cherry-picked, set 3, MITF inhibitor project, dose response (AID 493073); assay type: functional;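 note: SK-MEL-5 melanoma cells with luciferase driven by the MITF target TRPM1 promoter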
T5 sequence (O75030 whole entry): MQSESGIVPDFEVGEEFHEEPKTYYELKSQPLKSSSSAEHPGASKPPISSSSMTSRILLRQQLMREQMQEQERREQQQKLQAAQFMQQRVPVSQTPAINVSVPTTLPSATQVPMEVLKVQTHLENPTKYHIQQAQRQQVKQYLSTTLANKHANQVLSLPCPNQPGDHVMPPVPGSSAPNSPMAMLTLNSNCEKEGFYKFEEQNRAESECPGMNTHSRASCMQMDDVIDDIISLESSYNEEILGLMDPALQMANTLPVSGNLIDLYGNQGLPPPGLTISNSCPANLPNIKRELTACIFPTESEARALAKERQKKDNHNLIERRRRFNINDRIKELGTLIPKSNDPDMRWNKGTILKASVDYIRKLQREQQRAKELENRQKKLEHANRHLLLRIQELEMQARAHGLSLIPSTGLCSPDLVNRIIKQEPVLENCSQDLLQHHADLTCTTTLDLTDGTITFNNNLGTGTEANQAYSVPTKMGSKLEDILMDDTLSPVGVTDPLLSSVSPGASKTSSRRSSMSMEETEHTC

[15] = target: T6, Carboxy-terminal domain RNA polymerase II polypeptide A small phosphatase 1 (Homo sapiens, UniProt Q9GZU7); test: CTDSP1 inhibitors, concentration-response, biochemical, absorbance readout, ultra-high-throughput screen actives (AID 540297); assay type: functional
T6 sequence (Q9GZU7 whole entry): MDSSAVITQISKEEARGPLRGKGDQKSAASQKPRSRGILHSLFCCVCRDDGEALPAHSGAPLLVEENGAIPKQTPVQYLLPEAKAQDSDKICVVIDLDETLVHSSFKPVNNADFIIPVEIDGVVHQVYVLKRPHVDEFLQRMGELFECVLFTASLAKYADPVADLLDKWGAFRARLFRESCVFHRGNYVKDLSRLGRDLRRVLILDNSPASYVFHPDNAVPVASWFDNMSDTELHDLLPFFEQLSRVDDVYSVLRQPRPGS

[16] = target: FAD-linked sulfhydryl oxidase ALR (Homo sapiens, UniProt P55789); test: ALR-catalysed DTT oxidation blockers – biochemical, H2O2 detection, luminescence, cherry-pick, dose response (AID 493248)
Chain of FAD-linked sulfhydryl oxidase ALR (P55789 whole entry, the tested form may be a part): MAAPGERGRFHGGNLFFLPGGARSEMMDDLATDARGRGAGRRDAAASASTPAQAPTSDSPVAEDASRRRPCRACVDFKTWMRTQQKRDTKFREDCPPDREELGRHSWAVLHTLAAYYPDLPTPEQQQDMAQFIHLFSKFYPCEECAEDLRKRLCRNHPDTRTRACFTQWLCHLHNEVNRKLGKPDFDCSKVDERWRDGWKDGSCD

[17] = target: T7, Polyadenylate-binding protein 1 (Homo sapiens, UniProt P11940); test: MLLE domain peptide-binding blockers, IC50 – biochemical, fluorescence polarization, FITC-PAM2 peptide, dose response (AID 602259); assay type: functional; settings: read-out: IC50_Mean
T7 sequence (P11940 whole entry, the tested form may be a part): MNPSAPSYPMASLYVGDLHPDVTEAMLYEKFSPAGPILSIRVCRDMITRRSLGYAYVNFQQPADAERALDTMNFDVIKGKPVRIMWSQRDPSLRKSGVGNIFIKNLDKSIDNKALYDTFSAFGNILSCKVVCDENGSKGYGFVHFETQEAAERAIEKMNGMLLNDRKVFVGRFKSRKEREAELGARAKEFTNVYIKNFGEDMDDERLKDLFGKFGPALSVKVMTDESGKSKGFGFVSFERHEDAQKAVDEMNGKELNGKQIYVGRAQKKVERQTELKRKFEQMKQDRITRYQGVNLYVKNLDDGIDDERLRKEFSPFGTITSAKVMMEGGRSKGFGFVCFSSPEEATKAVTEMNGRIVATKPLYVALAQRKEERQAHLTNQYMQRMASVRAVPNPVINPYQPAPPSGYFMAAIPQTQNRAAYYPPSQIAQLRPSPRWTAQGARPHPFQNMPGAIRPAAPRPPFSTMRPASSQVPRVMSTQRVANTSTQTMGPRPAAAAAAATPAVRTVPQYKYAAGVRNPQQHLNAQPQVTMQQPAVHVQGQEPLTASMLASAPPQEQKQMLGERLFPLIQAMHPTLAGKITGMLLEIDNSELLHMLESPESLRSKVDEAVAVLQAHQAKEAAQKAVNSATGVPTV

[18] = target: T7, Polyadenylate-binding protein 1; test: MLLE binding blockers, Cy5 peptide tracer – biochemical, fluorescence polarization, Cy5-PAM2 peptide, secondary, miRNA deadenylation inhibitor project, dose response (AID 602260); assay type: functional; settings: read-out: IC50_Mean

Chain of Induced myeloid leukemia cell differentiation protein Mcl-1 (Q07820 whole entry): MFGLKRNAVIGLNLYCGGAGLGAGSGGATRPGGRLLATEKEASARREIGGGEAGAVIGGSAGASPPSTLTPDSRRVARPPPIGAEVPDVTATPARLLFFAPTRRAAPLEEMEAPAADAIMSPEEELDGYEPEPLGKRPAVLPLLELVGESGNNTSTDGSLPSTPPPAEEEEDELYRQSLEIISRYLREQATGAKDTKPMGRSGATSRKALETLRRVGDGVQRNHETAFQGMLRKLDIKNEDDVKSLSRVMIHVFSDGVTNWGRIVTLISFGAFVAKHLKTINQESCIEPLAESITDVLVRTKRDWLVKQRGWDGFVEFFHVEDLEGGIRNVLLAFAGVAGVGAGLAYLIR

In the case of `CCN(CC)c1ccc(/C=N/N2CCN(Cc3ccccc3)CC2)cc1`, the IC50 [1] is reported as 11.5 µM (not active) and the IC50 [2] is reported as 78.7 µM (active).
For `CC1Oc2cc3c(-c4c(O)cc(O)c5c(O)c6c(cc45)OC(C)C(C)C6=O)c(O)cc(O)c3c(O)c2C(=O)C1C` (configuration not stated), the EC50 (Streptococcus) was 0.967 µM (active), the IC50 (Nonstructural protein 1) was 29.4 µM (active) and the EC50 [3] was 0.324 µM (active). The EC50 (Streptokinase A) was 1.74 µM (active) and the IC50 [1] was 2.15 µM (active).
For `N#Cc1ccc(-c2ccc(OCC(=O)Nc3cccnc3)cc2)cc1`, the IC50 (cells) was 1.63 µM (active) and the CC50 [4] was 10.8 µM (active).
With `O=C(Nc1ccccc1)c1n[nH]c2c1COc1ccccc1-2` the IC50 [5] was > 100 µM (inactive) and the IC50 [6] was > 100 µM (not active).
In the case of `O=C(OCC(=O)N1c2ccccc2Sc2ccccc21)c1ccc[n+]([O-])c1`, the IC50 [7] is reported as 1.66 µM (not active).
With `Cc1nccn1-c1cccnc1` the IC50 [5] was > 100 µM (inactive) and the IC50 [6] was > 100 µM (not active).
For `Cc1cccc(Oc2ccc(Cl)cc2N)c1`, the IC50 [7] was > 50 µM (not active).
With `O=[N+]([O-])c1cc(Br)c(O)c(/C=N/Nc2nc3ccccc3s2)c1` the EC50 (Streptococcus) was 1.69 µM (active), the EC50 [3] was 1.59 µM (active) and the IC50 [1] was > 54 µM (active).
For `O=S(=O)(Nc1cccnc1)c1ccccc1`, the IC50 [5] was > 100 µM (inactive) and the IC50 [6] was > 100 µM (not active).
With `CCc1nnc(NC(=O)c2ccc(Cl)c(S(=O)(=O)N3CCc4ccccc4C3)c2)s1` the IC50 (HEK293 [8]) was 5.23 µM (active), the IC50 (HEK293 [9]) was 4.3 µM (active) and the IC50 (HEK293 [10]) was 15.5 µM (active). The IC50 (HEK293 [11]) was 17 µM (active), the EC50 [12] was 5.23 µM (active) and the EC50 (HEK293 [13]) was 2.1 µM (active).
With `O=C(N/N=C/c1ccc([N+](=O)[O-])s1)c1ccccc1` the IC50 (cells) was 10.3 µM (active), the CC50 [4] was 33.3 µM (active) and the AC50 [14] was 2.29 µM (active).
In the case of `CC(C)/N=C(\S)NN=C1CCCCCCCCCCC1`, the IC50 [7] is reported as 1.04 µM (not active).
With `COc1ccc(OC)c(NC(=O)c2cnc3ccccc3c2)c1` the IC50 [5] was > 10 µM (inactive) and the IC50 [6] was > 10 µM (inconclusive).
In the case of `COc1ccc(OC)c(NC(=O)c2cccnc2)c1`, the IC50 [5] is reported as > 100 µM (inactive) and the IC50 [6] is reported as > 100 µM (not active).
In the case of `O=C(CSc1nnc(COc2ccccc2Cl)o1)NC(=O)NCc1ccco1`, the IC50 [15] is reported as 5.93 µM (active) and the IC50 [1] is reported as 6.9 µM (active).
With `O=C1c2cccc3cccc(c23)C(=O)N1CCN1CCN(C(=S)Nc2ccc(Cl)cc2)CC1` the IC50 [7] was 22.7 µM (not active).
In the case of `Oc1ccc(/C=N/n2cc(-c3ccccc3)nc2S)cc1`, the AC50 [16] is reported as 0.86 µM (active), the IC50 [17] is reported as > 66 µM (inactive) and the IC50 [18] is reported as > 66 µM (inactive). The IC50 [1] was 16.5 µM (active) and the IC50 [2] was 101 µM (active).
